The text below walks through data of ChEMBL document CHEMBL1909046, “DrugMatrix in vitro pharmacology data”.

SMILES strings stand for the structures.

The target in series [1] is Beta-1 adrenergic receptor (Homo sapiens, UniProt P08588). As to the kind of experiment: DRUGMATRIX: Adrenergic beta1 radioligand binding (ligand: [125I] Cyanopindolol). In kind it is cell membranes, CHO-K1, Membrane. Conditions: Not Active = under 50% inhibition at 10 µM.
Series [2] deals with Vascular endothelial growth factor receptor 1 (Homo sapiens, UniProt P17948). The class given is cell-based. The note with it: huvec.
A short description of series [3]: DRUGMATRIX: Glutamate, AMPA radioligand binding (ligand: [3H] AMPA). In kind it is cell membranes, Rattus norvegicus, Wistar, Cerebral cortex, Membrane. The note with it: Not Active = under 50% inhibition at 10 µM.
Series [4] addresses T1, 3-hydroxy-3-methylglutaryl-coenzyme A reductase (Homo sapiens, UniProt P04035).
T1 sequence (P04035 whole entry): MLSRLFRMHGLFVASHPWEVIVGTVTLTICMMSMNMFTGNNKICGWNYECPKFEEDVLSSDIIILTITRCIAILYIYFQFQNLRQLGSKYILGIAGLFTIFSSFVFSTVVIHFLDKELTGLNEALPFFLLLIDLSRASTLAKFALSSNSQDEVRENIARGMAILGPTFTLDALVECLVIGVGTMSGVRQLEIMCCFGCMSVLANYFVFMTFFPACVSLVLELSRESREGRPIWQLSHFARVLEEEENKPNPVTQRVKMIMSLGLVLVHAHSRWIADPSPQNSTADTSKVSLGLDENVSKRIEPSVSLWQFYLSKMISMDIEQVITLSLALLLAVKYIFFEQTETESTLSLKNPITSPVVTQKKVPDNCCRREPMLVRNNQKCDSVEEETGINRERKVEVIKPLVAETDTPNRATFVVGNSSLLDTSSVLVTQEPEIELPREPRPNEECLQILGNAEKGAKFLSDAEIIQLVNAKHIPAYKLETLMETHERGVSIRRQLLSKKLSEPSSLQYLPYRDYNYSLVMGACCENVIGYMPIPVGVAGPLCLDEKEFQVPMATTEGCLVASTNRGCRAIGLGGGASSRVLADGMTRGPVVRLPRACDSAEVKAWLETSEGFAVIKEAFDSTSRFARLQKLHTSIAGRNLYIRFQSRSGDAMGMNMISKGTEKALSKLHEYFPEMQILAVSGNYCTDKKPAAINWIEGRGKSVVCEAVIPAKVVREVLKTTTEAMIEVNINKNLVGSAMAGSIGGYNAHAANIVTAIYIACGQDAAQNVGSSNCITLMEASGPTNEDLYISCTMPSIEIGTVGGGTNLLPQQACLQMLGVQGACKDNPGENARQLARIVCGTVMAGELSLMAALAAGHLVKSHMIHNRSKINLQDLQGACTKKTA
Set-up: species or system Escherichia coli.

Series [5] has as its target cGMP-specific 3',5'-cyclic phosphodiesterase (Homo sapiens, UniProt O76074). The series is described as follows: DRUGMATRIX: Phosphodiesterase PDE5 enzyme inhibition (substrate: [3H]cGMP + cGMP). Conditions: platelet; Not Active = under 50% inhibition at 10 µM. In kind it is tissue-based, Platelet.
The target in series [6] is 5-hydroxytryptamine receptor 1B (Rattus norvegicus, UniProt P28564). The class given is cell membranes, Wistar, Cerebral cortex, Membrane. Further: in other assays of this panel Not Active means under 50% inhibition at 10 µM.
The target in a further series is Cytochrome P450 2D6 (Homo sapiens, UniProt P10635). Conditions: bti-tn-5b1-4. Further: in other assays of this panel Not Active means under 50% inhibition at 10 µM.
Chain of Cytochrome P450 2D6 (P10635 whole entry): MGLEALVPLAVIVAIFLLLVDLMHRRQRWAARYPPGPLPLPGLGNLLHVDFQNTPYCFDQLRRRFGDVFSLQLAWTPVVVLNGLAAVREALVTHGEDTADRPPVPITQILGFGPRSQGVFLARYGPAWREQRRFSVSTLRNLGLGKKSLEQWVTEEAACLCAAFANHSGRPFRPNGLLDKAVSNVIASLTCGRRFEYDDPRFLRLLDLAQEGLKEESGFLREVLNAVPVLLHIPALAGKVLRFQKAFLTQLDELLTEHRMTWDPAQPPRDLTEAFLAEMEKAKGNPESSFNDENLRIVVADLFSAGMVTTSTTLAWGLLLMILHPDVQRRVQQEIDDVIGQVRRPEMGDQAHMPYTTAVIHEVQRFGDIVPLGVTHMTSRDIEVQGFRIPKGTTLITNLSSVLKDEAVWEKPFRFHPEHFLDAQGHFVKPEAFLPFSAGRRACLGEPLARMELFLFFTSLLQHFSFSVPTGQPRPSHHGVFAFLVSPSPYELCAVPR

Chain of Beta-1 adrenergic receptor (P08588 whole entry): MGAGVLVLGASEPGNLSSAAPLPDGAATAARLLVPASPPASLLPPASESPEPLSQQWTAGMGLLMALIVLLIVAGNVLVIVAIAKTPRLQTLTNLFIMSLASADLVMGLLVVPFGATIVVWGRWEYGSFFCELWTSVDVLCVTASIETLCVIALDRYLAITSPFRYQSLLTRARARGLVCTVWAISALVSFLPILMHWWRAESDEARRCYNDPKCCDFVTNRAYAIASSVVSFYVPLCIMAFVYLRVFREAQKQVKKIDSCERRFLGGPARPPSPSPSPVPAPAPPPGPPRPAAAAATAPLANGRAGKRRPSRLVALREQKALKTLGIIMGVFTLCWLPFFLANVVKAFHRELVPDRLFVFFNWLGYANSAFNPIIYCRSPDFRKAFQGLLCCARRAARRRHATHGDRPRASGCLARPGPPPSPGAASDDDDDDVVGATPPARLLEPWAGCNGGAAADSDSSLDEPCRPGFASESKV
Chain of 5-hydroxytryptamine receptor 1B (P28564 whole entry): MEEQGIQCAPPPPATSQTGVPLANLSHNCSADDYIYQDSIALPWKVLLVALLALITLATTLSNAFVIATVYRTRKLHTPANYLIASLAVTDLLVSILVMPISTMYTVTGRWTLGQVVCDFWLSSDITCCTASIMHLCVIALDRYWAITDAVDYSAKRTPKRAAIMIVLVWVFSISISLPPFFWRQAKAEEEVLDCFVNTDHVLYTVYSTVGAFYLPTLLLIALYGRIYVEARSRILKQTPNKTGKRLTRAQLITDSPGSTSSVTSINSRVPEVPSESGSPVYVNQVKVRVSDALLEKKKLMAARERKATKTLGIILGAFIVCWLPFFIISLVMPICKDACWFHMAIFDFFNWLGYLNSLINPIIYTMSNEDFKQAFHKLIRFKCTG
Chain of Vascular endothelial growth factor receptor 1 (P17948 whole entry): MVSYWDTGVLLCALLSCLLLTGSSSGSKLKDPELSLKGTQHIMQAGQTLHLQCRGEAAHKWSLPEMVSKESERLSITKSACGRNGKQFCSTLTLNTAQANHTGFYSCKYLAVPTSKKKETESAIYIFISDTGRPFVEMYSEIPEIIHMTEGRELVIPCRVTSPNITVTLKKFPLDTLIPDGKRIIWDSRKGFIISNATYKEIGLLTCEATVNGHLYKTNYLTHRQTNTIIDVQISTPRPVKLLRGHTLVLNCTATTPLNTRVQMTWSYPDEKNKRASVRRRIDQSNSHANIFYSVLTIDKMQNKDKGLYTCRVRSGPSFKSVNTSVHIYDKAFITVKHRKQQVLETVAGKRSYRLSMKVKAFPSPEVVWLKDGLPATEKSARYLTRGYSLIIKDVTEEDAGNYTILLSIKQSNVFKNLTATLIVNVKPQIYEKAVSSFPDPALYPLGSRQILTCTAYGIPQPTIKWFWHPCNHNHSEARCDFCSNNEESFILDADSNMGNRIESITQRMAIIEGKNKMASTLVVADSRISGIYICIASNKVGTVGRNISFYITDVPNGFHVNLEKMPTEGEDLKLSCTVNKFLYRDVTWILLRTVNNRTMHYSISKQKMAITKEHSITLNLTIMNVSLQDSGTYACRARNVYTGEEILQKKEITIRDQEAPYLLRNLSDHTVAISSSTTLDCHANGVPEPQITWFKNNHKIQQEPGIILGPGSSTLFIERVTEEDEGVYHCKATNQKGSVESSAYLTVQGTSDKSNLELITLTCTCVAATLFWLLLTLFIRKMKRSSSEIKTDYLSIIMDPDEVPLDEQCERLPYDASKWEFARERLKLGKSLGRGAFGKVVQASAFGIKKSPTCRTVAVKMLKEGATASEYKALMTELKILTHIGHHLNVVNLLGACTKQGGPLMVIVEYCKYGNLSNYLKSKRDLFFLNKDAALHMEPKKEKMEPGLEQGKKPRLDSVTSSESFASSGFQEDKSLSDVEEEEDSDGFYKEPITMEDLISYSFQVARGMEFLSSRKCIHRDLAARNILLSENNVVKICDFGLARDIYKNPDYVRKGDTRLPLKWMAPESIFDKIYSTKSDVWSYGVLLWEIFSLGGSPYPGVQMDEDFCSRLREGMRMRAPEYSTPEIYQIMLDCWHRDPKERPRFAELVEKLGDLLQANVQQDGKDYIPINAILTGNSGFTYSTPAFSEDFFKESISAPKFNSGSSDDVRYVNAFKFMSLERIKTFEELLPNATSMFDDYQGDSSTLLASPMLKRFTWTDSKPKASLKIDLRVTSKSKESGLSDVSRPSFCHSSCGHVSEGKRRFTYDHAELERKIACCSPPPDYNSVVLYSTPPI

Take `C[C@H]1O[C@H](O[C@H]2[C@H](O)[C@@H](O)[C@@H](O[C@H]3[C@H](O)[C@@H](O)C(O)O[C@@H]3CO)O[C@@H]2CO)[C@H](O)[C@@H](O)[C@@H]1N[C@H]1C=C(CO)[C@@H](O)[C@H](O)[C@H]1O` (some centres undefined) [ACARBOSE]: the IC50 entry in series [1] (cho-k1), in series [2], in series [3], in series [4], in series [5] and in series [6] was “Not Active” in each case. Moreover, at Cytochrome P450 2D6, the half-inhibitory concentration (IC50) result is “Not Active”. Further, the Ki entry (in series [3]; on Cytochrome P450 2D6) was “Not Active” in each case.

Take `NCCCNCCSP(=O)(O)O` [AMIFOSTINE]: the IC50 entry in series [1] (cho-k1), in series [2], in series [3], in series [4], in series [5] and in series [6] was “Not Active” in each case. Moreover, the half-maximal inhibitory concentration (IC50) entry against Cytochrome P450 2D6 is listed as “Not Active”. The inhibition constant (Ki) result (in series [3]; on Cytochrome P450 2D6) was “Not Active” in each case.

As to `CN(C)CCC=C1c2ccccc2CCc2ccccc21` [AMITRIPTYLINE], the 50% inhibitory concentration (IC50) entry is “Not Active” in series [1] (cho-k1); “Not Active” in series [2]; “Not Active” in series [3]; “Not Active” in series [4]; “Not Active” in series [5]; 3.73 µM in series [6] (read-out: IC50). Also, on Cytochrome P450 2D6, the IC50 entry is recorded as “Not Active”. In addition, the values for the Ki result (in series [3]; in series [6] (read-out: Ki); at Cytochrome P450 2D6) were “Not Active”, 1.69 µM and “Not Active”, respectively.

`CC(=O)Oc1ccccc1C(=O)O` [ASPIRIN]: the IC50 entry in series [1] (cho-k1), in series [2], in series [3], in series [4], in series [5] and in series [6] was “Not Active” each time. Besides, at Cytochrome P450 2D6, the IC50 entry is given as “Not Active”. The Ki result (in series [3]; on Cytochrome P450 2D6) was “Not Active” each time.

`CC(=O)OC[C@H]1O[C@@H](n2ncc(=O)[nH]c2=O)[C@H](OC(C)=O)[C@@H]1OC(C)=O` [AZARIBINE]: the half-inhibitory concentration (IC50) entry in series [1] (cho-k1), in series [2], in series [3], in series [4], in series [5] and in series [6] was “Not Active” each time. In addition, on Cytochrome P450 2D6, the half-maximal inhibitory concentration (IC50) entry is reported as “Not Active”. Besides, the Ki entry (in series [3]; on Cytochrome P450 2D6) was “Not Active” each time.

For `C[C@H]1[C@H](NC(=O)/C(=N\OC(C)(C)C(=O)O)c2csc(N)n2)C(=O)N1S(=O)(=O)O` [AZTREONAM], the IC50 result in series [1] (cho-k1), in series [2], in series [3], in series [4], in series [5] and in series [6] was “Not Active” each time. Also, the half-inhibitory concentration (IC50) entry against Cytochrome P450 2D6 is “Not Active”. Also, the inhibition constant Ki result (in series [3]; on Cytochrome P450 2D6) was “Not Active” each time.

`O=C(O)CCNC(=O)c1ccc(/N=N/c2ccc(O)c(C(=O)O)c2)cc1` [BALSALAZIDE]: the concentration for half-maximal inhibition (IC50) entry in series [1] (cho-k1), in series [2], in series [3], in series [4], in series [5] and in series [6] was “Not Active” in each case. Further, the IC50 entry on Cytochrome P450 2D6 is “Not Active”. Moreover, the Ki entry (in series [3]; on Cytochrome P450 2D6) was “Not Active” throughout.

In the case of `COc1cc(OC)c(C(=O)CCCN2CCCC2)c(OC)c1` [BUFLOMEDIL], the 50% inhibitory concentration (IC50) result in series [1] (cho-k1), in series [2], in series [3], in series [4], in series [5] and in series [6] was “Not Active” in each case. Further, on Cytochrome P450 2D6, the IC50 entry is listed as “Not Active”. The inhibition constant Ki entry (in series [3]; on Cytochrome P450 2D6) was “Not Active” each time.

`Cn1c(=O)c2c(ncn2C)n(C)c1=O` [CAFFEINE]: the concentration for half-maximal inhibition (IC50) entry in series [1] (cho-k1), in series [2], in series [3], in series [4], in series [5] and in series [6] was “Not Active” in each case. Besides, the IC50 entry against Cytochrome P450 2D6 is “Not Active”. Also, the Ki entry (in series [3]; at Cytochrome P450 2D6) was “Not Active” throughout.

As for `ClC(Cl)(Cl)Cl` [CARBON TETRACHLORIDE], the IC50 result in series [1] (cho-k1), in series [2], in series [3], in series [4], in series [5] and in series [6] was “Not Active” each time. The IC50 entry at Cytochrome P450 2D6 is given as “Not Active”. The Ki result (in series [3]; at Cytochrome P450 2D6) was “Not Active” throughout.

In the case of `CO/N=C(\C(=O)N[C@@H]1C(=O)N2C(C(=O)O)=C(COC(C)=O)CS[C@H]12)c1csc(N)n1` [CEFOTAXIME], the IC50 result in series [1] (cho-k1), in series [2], in series [3], in series [4], in series [5] and in series [6] was “Not Active” in each case. Further, at Cytochrome P450 2D6, the IC50 entry is recorded as “Not Active”. The inhibition constant Ki result (in series [3]; at Cytochrome P450 2D6) was “Not Active” throughout.

On to `CNC1=Nc2ccc(Cl)cc2C(c2ccccc2)=[N+]([O-])C1` [CHLORDIAZEPOXIDE], for which the concentration for half-maximal inhibition (IC50) entry in series [1] (cho-k1), in series [2], in series [3], in series [4], in series [5] and in series [6] was “Not Active” throughout. For the same compound, the IC50 entry against Cytochrome P450 2D6 is recorded as “Not Active”. Further, the inhibitory constant (Ki) entry (in series [3]; at Cytochrome P450 2D6) was “Not Active” each time.

As for `Cc1cc(O)cc(C)c1Cl` [CHLOROXYLENOL], the concentration for half-maximal inhibition (IC50) result in series [1] (cho-k1), in series [2], in series [3], in series [4], in series [5] and in series [6] was “Not Active” in each case. For the same compound, the concentration for half-maximal inhibition (IC50) result at Cytochrome P450 2D6 is on record as “Not Active”. Besides, the inhibitory constant (Ki) result (in series [3]; at Cytochrome P450 2D6) was “Not Active” throughout.

With `CCCNC(=O)NS(=O)(=O)c1ccc(Cl)cc1` [CHLORPROPAMIDE], the IC50 entry in series [1] (cho-k1), in series [2], in series [3], in series [4], in series [5] and in series [6] was “Not Active” throughout. For the same compound, the IC50 result against Cytochrome P450 2D6 is given as “Not Active”. The inhibitory constant (Ki) entry (in series [3]; on Cytochrome P450 2D6) was “Not Active” in each case.

Turning to `NS(=O)(=O)c1cc(C2(O)NC(=O)c3ccccc32)ccc1Cl` (centres undefined) [CHLORTHALIDONE], the IC50 entry in series [1] (cho-k1), in series [2], in series [3], in series [4], in series [5] and in series [6] was “Not Active” in each case. Further, the IC50 entry at Cytochrome P450 2D6 was “Not Active”. The inhibitory constant (Ki) result (in series [3]; on Cytochrome P450 2D6) was “Not Active” in each case.

As to `CC(C)NCC(O)c1ccccc1Cl` (centres undefined) [CLORPRENALINE], the half-maximal inhibitory concentration (IC50) is 2.59 µM in series [1] (read-out: IC50); “Not Active” in series [2]; “Not Active” in series [3]; “Not Active” in series [4]; “Not Active” in series [5]; “Not Active” in series [6]. In addition, the IC50 result against Cytochrome P450 2D6 is given as “Not Active”. The inhibitory constant (Ki) in series [1] (read-out: Ki) was 1.5 µM; in series [3], “Not Active”; on Cytochrome P450 2D6, “Not Active”.

As for `CN1C[C@@H]2C[C@H]1CN2c1cc2c(cc1F)c(=O)c(C(=O)O)cn2C1CC1` [DANOFLOXACIN], the IC50 entry in series [1] (cho-k1), in series [2], in series [3], in series [4], in series [5] and in series [6] was “Not Active” throughout. For the same compound, the IC50 result against Cytochrome P450 2D6 is “Not Active”. Besides, the inhibition constant Ki result (in series [3]; at Cytochrome P450 2D6) was “Not Active” each time.

In the case of `COc1cccc2c1C(=O)c1c(O)c3c(c(O)c1C2=O)C[C@@](O)(C(C)=O)C[C@@H]3O[C@H]1C[C@H](N)[C@H](O)[C@H](C)O1` [DAUNORUBICIN], the IC50 entry in series [1] (cho-k1), in series [2], in series [3], in series [4], in series [5] and in series [6] was “Not Active” in each case. Also, the half-inhibitory concentration (IC50) result against Cytochrome P450 2D6 was “Not Active”. Also, the Ki entry (in series [3]; at Cytochrome P450 2D6) was “Not Active” in each case.

For orientation: IC50 means the point on the concentration scale where inhibition reaches its midpoint. The Ki is a dissociation constant, usually derived from enzyme kinetics or from competition with a known ligand.
